{"source": "patent US12472172B2", "about": "“Lomitapide for use in methods of treating hyperlipidemia and hypercholesterolemia in pediatric patients” (Amryt Pharmaceuticals Inc., priority 2020, dated 2025)", "origin": "cited, not measured here", "settings": "adult"}
{"smiles": "O=C(NC1CCN(CCCCC2(C(=O)NCC(F)(F)F)c3ccccc3-c3ccccc32)CC1)c1ccccc1-c1ccc(C(F)(F)F)cc1", "note": "[lomitapide, N-(2,2,2-trifluoroethyl)-9-[4-[4-[[[4′(trifluoromethyl)[1,1′-biphenyl]-2-yl]carbonyl]amino]-1-piperidinyl]butyl]-9H-fluorene-9-carboxamide]", "values": [{"measurement": "previously used fixed Qgut input", "result": 17.9, "unit": "L/h"}]}
